{"source": "patent US7309719B1", "about": "“Stabilized pharmaceutical preparation of gamma-aminobutyric acid derivatives and process for preparing the same” (Warner Lambert Company, LLC, priority 1998, dated 2007)", "key": {"[1]": {"assay": "Dehydration reaction (lactam formation) in a dried state at 105° C.", "format": "physicochemical", "settings": "105° C. over 2-3 hours", "from_the_text": "In other words, in the 4-amino-3-substituted-butanoic acid derivative wherein the substituent at the 3-position thereof has a bulky structure, the dehydration reaction could easily be brought about between the amino group and the carboxyl group within the molecule."}, "[2]": {"assay": "Stability of baclofen granular powders (wet admixture), dehydrated condensate content by HPLC (Example 11)", "format": "physicochemical", "settings": "solid", "protocol": "In this Example and the following Example, a content of the dehydrated condensate thus formed is expressed in terms of % by weight, based on baclofen.\nIn this Example, the stabilization of baclofen according to the wet admixture with the amino acid was tested for the following Samples (ag) and (ah) of baclofen.\n1) Sample (ag) was prepared by wetting 200 mg of baclofen crystals with 0.1 mL of water, forming granular powders by means of a mortar and then drying.\n2) Sample (ah) was prepared by wetting 200 mg of baclofen crystals with 0.1 mL of a 2% aqueous solution of L-isoleucine, forming granular powders by means of a mortar and then drying. • Samples (ag) and (ah) prepared as described above and untreated baclofen crystals were stored under the conditions as defined in the following Table 13 and then a content of the dehydrated condensate formed in each of the samples was determined by means of HPLC."}, "[3]": {"assay": "Stability of compacted pregabalin powders, dehydrated condensate content by HPLC (Example 9)", "format": "physicochemical", "settings": "solid", "protocol": "3) Sample (v) was prepared by dissolving 1 g of pregabalin crystals and 1.47 g of L-valine in water to make up a total volume of 50 mL. • Samples (t), (u) and (v) prepared as described above were stored under the conditions as defined in the following Table 10 and then a content of the dehydrated condensate formed in each of the aqueous solutions was determined by means of HPLC. In this Example and the following Examples, a content of the dehydrated condensate formed is expressed in terms of % by weight, based on pregabalin.\nThis Example will illustrate the preparation of a stabilized solid pharmaceutical preparation of pregabalin by the addition of the amino acid to pregabalin according to the dry admixture.\n1) 1 g of pregabalin crystals was prepared to powdery Sample (aa) in a compacted state by means of a mortar.\n2) 1 g of pregabalin crystals was blended with 10 mg of magnesium stearate by means of a mortar to prepare mixed powdery Sample (ab) in a compacted state.\n3) 1 g of pregabalin crystals was blended with 30 mg of talc by means of a mortar to prepare mixed powdery Sample (ac) in a compacted state.\n4) 1 g of pregabalin crystals was blended with 30 mg of L-leucine by means of a mortar to prepare mixed powdery Sample (ad) in a compacted state. • Samples (aa), (ab), (ac) and (ad) prepared as described above and untreated pregabalin crystals were stored under the conditions as defined in the following Table 11 and then a content of the dehydrated condensate formed in each of the samples was determined by means of HPLC."}, "[4]": {"assay": "Stabilizing effect of amino acids on 4-amino-3-substituted-butanoic acid derivatives"}}}
{"molecule": "NCC(O)CC(=O)O", "note": "(stereo not shown) [4-amino-3-hydroxy-butanoic acid]", "values": [{"measurement": "dehydration reaction (formation of the corresponding lactam form)", "setting": "[1]", "value": "not brought about"}]}
{"molecule": "NCC(CC(=O)O)c1ccc(Cl)cc1", "note": "(stereo not shown) [Untreated Baclofen]", "values": [{"measurement": "content of the dehydrated condensate", "setting": "[2]; 60° C./1 week (sealed)", "value": "0.36 % by weight, based on baclofen"}, {"measurement": "content of the dehydrated condensate", "setting": "[2]; 60° C./2 weeks (sealed)", "value": "0.57 % by weight, based on baclofen"}, {"measurement": "content of the dehydrated condensate", "setting": "[2]; 60° C./3 weeks (sealed)", "value": "0.70 % by weight, based on baclofen"}, {"measurement": "content of the dehydrated condensate", "setting": "[2]; When initiated", "value": "0.10 % by weight, based on baclofen"}]}
{"molecule": "CC(C)CC(CN)CC(=O)O", "note": "(stereo not shown) [Untreated Pregabalin, 5-methyl-3-aminomethyl-hexanoic acid]", "values": [{"measurement": "content of the dehydrated condensate", "setting": "[3]; 60° C./2 weeks (sealed)", "value": "0.001 % by weight, based on pregabalin"}, {"measurement": "content of the dehydrated condensate", "setting": "[3]; 80° C./1 week (sealed)", "value": "0.006 % by weight, based on pregabalin"}, {"measurement": "content of the dehydrated condensate", "setting": "[3]; When initiated", "value": "<0.001 % by weight, based on pregabalin"}]}
{"molecule": "O=C(O)[C@@H]1C[C@@H](O)CN1", "note": "[hydroxyproline]", "values": [{"measurement": "stabilizing effect as stabilizer for a 4-amino-3-substituted-butanoic acid derivative", "setting": "[4]", "value": "weak stabilizing effect"}]}
{"molecule": "NCCCC(=O)O", "note": "[γ-aminobutyric acid]", "values": [{"measurement": "dehydration reaction (formation of the corresponding lactam form)", "setting": "[1]", "value": "not brought about"}]}
